These results are taken from article PMC4821612, “Multispecific Organic Cation Transporter 1 (OCT1) from Bos taurus Has High Affinity and Slow Binding Kinetics towards Prostaglandin E2” (PLoS ONE, 2016).

Assay [1] deals with T1, Organic cation transporter 1 (btOCT1) (Bos taurus, UniProt A7MBE0, N107Q/N71Q/N91Q).
T1 construct: gene SLC22A1; purified tag-free btOCT1 triple N-glycosylation mutant (NP_001094568.1), expressed in Pichia pastoris
T1 sequence (A7MBE0 1-563 N71Q/N91Q/N107Q): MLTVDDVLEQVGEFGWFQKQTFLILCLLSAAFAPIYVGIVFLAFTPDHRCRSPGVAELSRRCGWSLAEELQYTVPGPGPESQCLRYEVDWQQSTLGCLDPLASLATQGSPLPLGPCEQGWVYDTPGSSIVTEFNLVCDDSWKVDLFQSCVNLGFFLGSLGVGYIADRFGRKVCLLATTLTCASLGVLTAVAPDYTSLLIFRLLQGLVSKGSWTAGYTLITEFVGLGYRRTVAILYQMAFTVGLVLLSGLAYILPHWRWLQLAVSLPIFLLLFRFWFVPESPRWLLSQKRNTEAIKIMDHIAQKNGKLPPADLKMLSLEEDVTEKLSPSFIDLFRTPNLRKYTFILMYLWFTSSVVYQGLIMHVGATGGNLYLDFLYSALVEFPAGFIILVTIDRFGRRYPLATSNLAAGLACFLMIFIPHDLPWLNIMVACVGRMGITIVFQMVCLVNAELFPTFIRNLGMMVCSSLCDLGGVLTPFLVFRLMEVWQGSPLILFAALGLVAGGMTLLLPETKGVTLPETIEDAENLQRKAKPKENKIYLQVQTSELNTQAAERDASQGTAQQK
Kind of assay: SPR kinetics, purified btOCT1 over streptavidin-immobilised PGE2-PEG11-Biotin (PEG11-Biotin control); steady-state k […]. It counts as binding.

The target of assay [2] is T2, Organic cation transporter 1 (btOCT1) (Bos taurus, UniProt A7MBE0, N71Q/N91Q/N107Q).
T2 construct: gene SLC22A1; purified tag-free btOCT1 triple N-glycosylation mutant (NP_001094568.1), expressed in Pichia pastoris
T2 sequence (A7MBE0 1-563 N71Q/N91Q/N107Q): T1 sequence (A7MBE0 1-563 N71Q/N91Q/N107Q)
The experiment in a line: fluorescence polarization with purified btOCT1; rhodamine […] alone does not bind. In kind it is binding.

pKd: −log10 of the molar value.

Regarding `CCCCC[C@H](O)/C=C/[C@H]1[C@H](O)CC(=O)[C@@H]1C/C=C\CCCC(=O)O` [Prostaglandin E2], the pKd in assay [1] was roughly 7.00.

Compound PGE2-Rhodamine showed a pKd in assay [2] of 6.27.
